Data: patent US20120164117A1, “METHODS OF GENERATING HUMAN CARDIAC CELLS AND TISSUES AND USES THEREOF” (TECHNION RESEARCH & DEVELOPMENT FOUNDATION LTD., priority 2001, published 2012)
Read-outs that look alike come from different tables or passages of the source.

How the values were obtained:
[1] = tested on: hybrid rat ventricular myocyte-human embryonic stem cell-derived cardiomyocyte co-cultures; assay: Electrical coupling in hybrid human ES cell-derived cardiomyocyte / neonatal rat ventricular myocyte co-cultures on microelectrode array; type: cell-based
Procedure: Performed as described above in Example 2 of the Examples section. Primary monolayer cultures of neonatal rat (Sprague Dawley) ventricular myocytes were prepared as previously described (Fast V G. and Kleber A G., 1993. Circ Res. 73:914). Briefly, following excision, the ventricles were minced and treated with RDB (IIBR, Ness-Ziona, Israel). Dispersed cells were then cultured on gelatin coated (0.1%) microelectrode array plates or on glass cover slips at a density of 1.5×10^6 cells/ml. […] Pacing studies in co-cultures were performed by electrically stimulating the human or rat tissues with one of the electrodes of the multielectrode array. The degree of electrical coupling between the two tissue types was also assessed during long term recordings and during adrenergic stimulation and partial gap junction uncoupling. The cycle-lengths of the electrical activity in the ES cell-derived cardiomyocytes and in the rat tissue were measured and a histogram depicting the ratio between these two cycle-lengths during long-term recordings is shown in FIG. 16i.

[2] = tested on: human embryonic stem cell-derived cardiomyocytic tissue (contracting embryoid bodies); assay: Pharmacological analysis of conduction, multielectrode array activation mapping of embryoid bodies; type: cell-based; parameters: Global Velocity / Mean CV Vector: unit not given here; details: for total activation time: one embryoid body
[3] = tested on: human embryonic stem cell-derived cardiomyocytic cells (contracting embryoid bodies); assay: Chronotropic responses of contracting embryoid bodies, multielectrode array extracellular recordings; type: cell-based; details: for spontaneous contraction rate, % of baseline (initial) value: drug at 10^−6 M (1 μM)
Source text: Multielectrode array (MEA) extracellular electrophysiology mapping and pharmacological studies: Intact contracting areas within the embryoid bodies were mechanically dissected using a pulled-glass micropipette and plated on gelatin-coated multielectrode arrays (Multi Channel Systems MCS GmbH, Reutlingen, Germany; Igelmund, P. et al., 1999. Pflugers Arch. 437: 669). The microelectrode array consists of 60 titanium nitride electrodes with gold contacts 30 μm in diameter with an interelectrode distance of 100-200 μm. The contracting areas were plated on top of the microelectrode arrays and cells were grown to confluence over the electrodes. […] Extracellular signals were recorded simultaneously from all 60 electrodes at 25 kHz and band-pass filtered from 1 to 3000 Hz. Recordings were performed in culture medium at 37° C. A pH of 7.4 was maintained using perfusion with an atmosphere containing 5% CO2 and 95% air. Chronotropic responses were assessed by extracellular recordings for 10 minutes prior to and following […], 1 μM carbamylcholine, 10 μM 3-isobutyl-1-methylxanthine (IBMX), or 1 μM forskolin (all from Sigma). Statistical analysis: Data are expressed as mean ±standard deviation. In order to assess possible chronotropic effects, the average spontaneous beating rate was compared prior to and following drug application using two-tailed paired Student's t test.

[4] = tested on: swine model of complete atrioventricular block; assay: Swine complete atrioventricular block model transplanted with human ES cell-derived cardiomyocytic cells, rate of new ventricular rhythm; type: in vivo; details: following isoproterenol (20 μM); rate before 68±4 beats/minute
[5] = tested on: human embryonic stem cell line H9.2 embryoid bodies; assay: Cardiomyocyte differentiation efficiency, percentage of contracting embryoid bodies; type: cell-based
Source text: Generation of human embryonic stem cell-derived cardiomyocytic cells: Ten different human embryonic stem cell lines including line H9 or its single cell clonal derivative H9.2 (Amit, M. et al., 2000. Dev. Biol. 227: 271) were individually grown on a mitotically inactivated (mitomycin C) mouse embryonic fibroblast feeder cell layer in culture medium, as previously described (Thomson, J. A. et al., 1998. Science 282: 1145). The culture medium consisted of 80% knockout DMEM (no-pyruvate, high-glucose formulation; Life Technologies, Inc., Rockville, Md., USA.) supplemented with 20% FBS (HyClone, Logan, Utah, USA.), 1 mM L-glutamine, 0.1 mM mercaptoethanol, and 1% nonessential amino acid stock (all from GIBCO-BRL). To induce differentiation, embryonic stem cells were dispersed into small clumps (3-20 cells) using collagenase IV (Life Technologies, Inc., 1 mg/ml for 20 minutes). […] The percentage of embryoid bodies displaying contracting areas, as well as the distribution of the timing of onset of spontaneous beating were evaluated. […] In addition, the effect of DMSO, a known stimulant of differentiation into cardiomyocytic lineage was assessed by adding dimethyl sulfoxide (Sigma Chemical Co., St. Louis, Mo., USA.) at a concentration of 0.75% (vol/vol) to the culture medium during the 10 days of growth in suspension. […]

[6] = extracellular potassium 10 mM, n=7
[7] = extracellular potassium 15 mM, n=7
[8] = extracellular potassium 20 mM, n=7

`CCCCCCCO` [Heptanol, 1-Heptanol] was tested, and the “co-cultures in which tight coupling was not altered” value ([1]; 1-Heptanol 0.5 mM) was 5 of the 8, the “co-cultures with occasional episodes of 2:1 conduction block” value ([1]; 1-Heptanol 0.5 mM, 8 co-cultures studied) was 3 and the total activation time ([2]; 1-heptanol 0.3 mM, baseline 15 milliseconds) was 32 milliseconds. The “effect of higher doses on beating” value ([2]; 1-heptanol 0.6 and 1 mM, n=8) was “complete cessation of beating”, the “Global Velocity” value ([2]; heptanol 0.3 mM, n=7) was 1.7 ± 0.6 and the “Maximal − dv/dt” value ([2]; heptanol 0.3 mM, n=7) was 2.0 ± 2.3 mV/sec. For the same molecule, the “Mean CV Vector” value ([2]; heptanol 0.3 mM, n=7) was 3.0 ± 5.7, the “Global Velocity” value ([2]; heptanol 0.6 mM) was 1.2 ± 0.9 and the “Maximal − dv/dt” value ([2]; heptanol 0.6 mM) was 2.1 ± 3.0 mV/sec. The “Mean CV Vector” value ([2]; heptanol 0.6 mM) was 3.0 ± 3.8, the “Global Velocity” value ([2]; heptanol 1 mM) was “No conduction” and the “Maximal − dv/dt” value ([2]; heptanol 1 mM) was “No conduction”. For the same molecule, the “Mean CV Vector” value ([2]; heptanol 1 mM) was “No conduction”.
With `[K+]` [Potassium] the “Global Velocity” value [2, 6] was 1.6 ± 0.6, the “Maximal − dv/dt” value [2, 6] was 2.7 ± 5.5 mV/sec and the “Mean CV Vector” value [2, 6] was 3.5 ± 4.2. The total activation time ([2]; extracellular potassium 10 mM, baseline 25 milliseconds) was 40 milliseconds, the “Global Velocity” value [2, 7] was 1.0 ± 0.3 and the “Maximal − dv/dt” value [2, 7] was 1.1 ± 1.4 mV/sec. The “Mean CV Vector” value [2, 7] was 2.0 ± 2.3, the total activation time ([2]; extracellular potassium 15 mM, baseline 25 milliseconds) was 70 milliseconds and the “Global Velocity” value [2, 8] was 1.0 ± 0.4. For the same molecule, the “Maximal − dv/dt” value [2, 8] was 1.1 ± 1.2 mV/sec, the “Mean CV Vector” value [2, 8] was 1.5 ± 1 and the total activation time ([2]; extracellular potassium 20 mM, baseline 25 milliseconds) was 120 milliseconds.
In the case of `C=C[C@@]1(C)CC(=O)[C@]2(O)[C@@]3(C)[C@@H](O)CCC(C)(C)[C@@H]3[C@H](O)[C@H](OC(C)=O)[C@@]2(C)O1` [forskolin], the “spontaneous contraction rate, % of baseline (initial) value” ([3]; mean ± SD) was 182±48%.
With `COc1ccc([C@@H]2Sc3ccccc3N(CCN(C)C)C(=O)[C@@H]2OC(C)=O)cc1.Cl` [Diltiazem, diltiazem hydrochloride] the “Global Velocity” value [2] was 2.8 ± 2.0, the “Maximal − dv/dt” value [2] was 2.5 ± 4.2 mV/sec and the “Mean CV Vector” value [2] was 5.7 ± 4.2. The “changes in the conduction parameters studied (global velocity, local velocity vector, −dV/dtmax)” value [2] was “did not result in significant changes”.
For `C[N+](C)(C)CCOC(N)=O.[Cl-]` [carbamylcholine], the “spontaneous contraction rate, % of baseline (initial) value” ([3]; mean ± SD) was 78±20%.
For `NC1=N[C@H](O)[C@H]2[C@H]3O[C@]4(O)O[C@@H]([C@@H](O)[C@@]2(N1)[C@@H]4O)[C@]3(O)CO` [TTX, tetrodotoxin], the “Global Velocity” value [2] was 1.8 ± 0.9, the “Maximal − dv/dt” value [2] was 1.9 ± 1.9 mV/sec and the “Mean CV Vector” value [2] was 3.2 ± 3. For the same molecule, the “total microelectrode array activation time” value [2] was 35 milliseconds.
With `CC(C)NCC(O)c1ccc(O)c(O)c1` (centres unmarked) [Isoproterenol, isoproterenol] the “electrical coupling between the two cell types” value ([1]; isoproterenol 10 μM) was “not hindered”, the spontaneous beating rate ([1]; isoproterenol 10 μM, base line 1.6±0.6 Hz, p<0.05) was 1.9±0.8 Hz and the “heart rate of the new ventricular rhythm” value [4] was 105±10 beats/minute. For the same molecule, the “chronotropic response of contracting embryoid bodies” value ([3]; 10 μM isoproterenol) was “positive chronotropic responses” and the “spontaneous contraction rate, % of baseline (initial) value” ([3]; mean ± SD) was 146±43%.
`CN1[C@@H]2CC[C@H]1C[C@@H](OC(=O)C(CO)c1ccccc1)C2` (some centres unmarked) [atropine] was tested, and the “effect on carbamylcholine-induced decrease of spontaneous contraction rate” value [3] was “reversed”.
`C[S+](C)[O-]` [DMSO, dimethyl sulfoxide] was tested, and the “increase of the percentage of embryoid bodies with cells displaying cardiac lineage differentiation” value ([5]; 0.75 percent (v/v) dimethyl sulfoxide) was “about 20%” and the “percentage of embryoid bodies demonstrating contracting areas” value ([5]; DMSO 0.75% (vol/vol) during suspension, 8.1% without) was 10.1%.
With `CC(C)Cn1c(=O)n(C)c(=O)c2[nH]cnc21` [IBMX, 3-isobutyl-1-methylxanthine] the “spontaneous contraction rate, % of initial value” ([3]; 10 μM IBMX, n=6, mean ± SD) was 152±77%.
